Molecular target: T1, ERR1 (also known as ERR-α or ERR-1) (Homo sapiens, UniProt P11474)
T1 sequence (P11474 193-421 limits assumed): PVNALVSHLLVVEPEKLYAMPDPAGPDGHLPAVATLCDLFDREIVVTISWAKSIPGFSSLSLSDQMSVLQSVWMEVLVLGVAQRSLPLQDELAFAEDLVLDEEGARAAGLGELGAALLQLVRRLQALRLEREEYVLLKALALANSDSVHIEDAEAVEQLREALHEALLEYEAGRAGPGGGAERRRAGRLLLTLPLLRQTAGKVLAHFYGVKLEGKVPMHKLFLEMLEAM
Experiment: TR-FRET assay (disruption of co-activator peptide binding to ERR1 LBD)
Format: biochemical
Settings: 6 nM 6His-ERR1LBD, 6 nM GST-SRC-2 peptide; average of 3 independent experiments
Summary of the method: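 Homogeneous TR-FRET measuring displacement of GST-hSRC2 co-activator peptide (6 nM) from His-tagged ERR1 LBD (6 nM), detected with α-GST Eu cryptate (30 nM) and α-His-XL665 (7.5 nM). Buffer 25 mM Tris pH 8, 2.5 mM Hepes, 20 mM KCl, 1 mM DTT, 0.05 mg/mL delipidated BSA; equilibration 4-18 h at 25° C. Hyperbolic dose-response fit, mean of 3 experiments.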

SMILES	EC50
O=C(O)CN1CCC[C@H]1CN1C(=O)S/C(=C\c2ccc3c(cnn3Cc3ccc(Cl)cc3C(F)(F)F)c2)C1=O [Compound 151, [(2S)-2-{[(5Z)-5-({1-[4-Chloro-2-(trifluoromethyl)benzyl]-1H-indazol-5-yl}methylidene)-2,4-dioxo-1,3-thiazolidin-3-yl]methyl}pyrrolidin-1-yl]acetic acid]	0.03 µM
COCCN1CCC[C@H]1CN1C(=O)S/C(=C\c2ccc3c(cnn3Cc3ccc(Cl)cc3C(F)(F)F)c2)C1=O [Compound 152, (5Z)-5-({1-[4-Chloro-2-(trifluoromethyl)benzyl]-1H-indazol-5-yl}methylidene)-3-{[(2S)-1-(2-methoxyethyl)pyrrolidin-2-yl]methyl}-1,3-thiazolidine-2,4-dione]	0.027 µM
O=C1S/C(=C\c2ccc3c(cnn3Cc3ccc(Cl)cc3C(F)(F)F)c2)C(=O)N1C[C@@H]1CCCN1CCO [Compound 153, (5Z)-5-({1-[4-Chloro-2-(trifluoromethyl)benzyl]-1H-indazol-5-yl}methylidene)-3-{[(2S)-1-(2-hydroxyethyl)pyrrolidin-2-yl]methyl}-1,3-thiazolidine-2,4-dione]	0.017 µM
CC[C@H](N)CN1C(=O)S/C(=C\c2ccc3c(cnn3Cc3ccc(Cl)cc3C(F)(F)F)c2)C1=O [Compound 154, 3-[(2S)-2-Aminobutyl]-(5Z)-5-({1-[4-chloro-2-(trifluoromethyl)benzyl]-1H-indazol-5-yl}methylidene)-1,3-thiazolidine-2,4-dione]	0.017 µM
CC[C@@H](CN1C(=O)S/C(=C\c2ccc3c(cnn3Cc3ccc(Cl)cc3C(F)(F)F)c2)C1=O)NS(C)(=O)=O [Compound 156, N-[(1S)-1-{[(5Z)-5-({1-[4-Chloro-2-(trifluoromethyl)benzyl]-1H-indazol-5-yl}methylidene)-2,4-dioxo-1,3-thiazolidin-3-yl]methyl}propyl] methanesulfonamide]	0.027 µM
C[C@@H](CN1C(=O)S/C(=C\c2ccc3c(cnn3Cc3ccc(Cl)cc3C(F)(F)F)c2)C1=O)NS(C)(=O)=O [Compound 157, N-{(1S)-2-[(5Z)-5-({1-[4-Chloro-2-(trifluoromethyl)benzyl]-1H-indazol-5-yl}methylidene)-2,4-dioxo-1,3-thiazolidin-3-yl]-1-methylethyl} methanesulfonamide]	0.023 µM
CS(=O)(=O)NCCN1C(=O)S/C(=C\c2ccc3c(cnn3Cc3ccc(Cl)cc3C(F)(F)F)c2)C1=O [Compound 158, N-{2-[(5Z)-5-({1-[4-Chloro-2-(trifluoromethyl)benzyl]-1H-indazol-5-yl}methylidene)-2,4-dioxo-1,3-thiazolidin-3-yl]ethyl}methanesulfonamide]	0.021 µM
CS(=O)(=O)CCN1CCC[C@H]1CN1C(=O)S/C(=C\c2ccc3c(cnn3Cc3ccc(Cl)cc3C(F)(F)F)c2)C1=O [Compound 159, (5Z)-5-({1-[4-Chloro-2-(trifluoromethyl)benzyl]-1H-indazol-5-yl}methylidene)-3-({(2S)-1-[2-(methylsulfonyl)ethyl]pyrrolidin-2-yl}methyl)-1,3-thiazolidine-2,4-dione]	0.087 µM
CC(C)(C)NS(=O)(=O)CN1C(=O)S/C(=C\c2ccc3c(cnn3Cc3ccc(Cl)cc3C(F)(F)F)c2)C1=O [Compound 160, N-tert-Butyl-1-[(5Z)-5-({1-[4-chloro-2-(trifluoromethyl)benzyl]-1H-indazol-5-yl}methylidene)-2,4-dioxo-1,3-thiazolidin-3-yl]methanesulfonamide]	0.077 µM
N[C@H](CN1C(=O)S/C(=C\c2ccc3c(cnn3Cc3ccc(Cl)cc3C(F)(F)F)c2)C1=O)c1ccccc1 [Compound 161, (5Z)-3-[(2S)-2-Amino-2-phenylethyl]-5-({1-[4-chloro-2-(trifluoromethyl)benzyl]-1H-indazol-5-yl}methylidene)-1,3-thiazolidine-2,4-dione]	0.073 µM
CC(C)[C@H](N)CN1C(=O)S/C(=C\c2ccc3c(cnn3Cc3ccc(Cl)cc3C(F)(F)F)c2)C1=O [Compound 162, (5Z)-3-[(2S)-2-Amino-3-methylbutyl]-5-({1-[4-chloro-2-(trifluoromethyl)benzyl]-1H-indazol-5-yl}methylidene)-1,3-thiazolidine-2,4-dione]	0.032 µM
O=C1S/C(=C\c2ccc3c(cnn3Cc3ccc(Cl)cc3C(F)(F)F)c2)C(=O)N1CCN1CCNCC1 [Compound 163, (5Z)-5-({1-[4-Chloro-2-(trifluoromethyl)benzyl]-1H-indazol-5-yl}methylidene)-3-(2-piperazin-1-ylethyl)-1,3-thiazolidine-2,4-dione]	0.038 µM
O=C1S/C(=C\c2ccc3c(cnn3Cc3ccc(Cl)cc3C(F)(F)F)c2)C(=O)N1CCC1CCNCC1 [Compound 164, (5Z)-5-({1-[4-Chloro-2-(trifluoromethyl)benzyl]-1H-indazol-5-yl}methylidene)-3-(2-piperidin-4-ylethyl)-1,3-thiazolidine-2,4-dione]	0.047 µM
NS(=O)(=O)CN1C(=O)S/C(=C\c2ccc3c(cnn3Cc3ccc(Cl)cc3C(F)(F)F)c2)C1=O [Compound 165, 1-[(5Z)-5-({1-[4-Chloro-2-(trifluoromethyl)benzyl]-1H-indazol-5-yl}methylidene)-2,4-dioxo-1,3-thiazolidin-3-yl]methanesulfonamide]	0.034 µM
COC[C@@H](N)CN1C(=O)S/C(=C\c2ccc3c(cnn3Cc3ccc(Cl)cc3C(F)(F)F)c2)C1=O [Compound 168, (5Z)-3-[(2S)-2-Amino-3-methoxypropyl]-5-({1-[4-chloro-2-(trifluoromethyl)benzyl]-1H-indazol-5-yl}methylidene)-1,3-thiazolidine-2,4-dione]	0.029 µM
NC(CN1C(=O)S/C(=C\c2ccc3c(cnn3Cc3ccc(Cl)cc3C(F)(F)F)c2)C1=O)C(F)(F)F (centres unmarked) [Compound 169, (5Z)-3-(2-Amino-3,3,3-trifluoropropyl)-5-({1-[4-chloro-2-(trifluoromethyl)benzyl]-1H-indazol-5-yl}methylidene)-1,3-thiazolidine-2,4-dione]	0.032 µM
COC(=O)CN1C(=O)S/C(=C\c2ccc3c(cnn3[C@H]3CCc4cc(Cl)ccc43)c2)C1=O [Compound 171, Methyl [(5Z)-5-({1-[(1S)-5-chloro-2,3-dihydro-1H-inden-1-yl]-1H-indazol-5-yl}methylidene)-2,4-dioxo-1,3-thiazolidin-3-yl]acetate]	0.029 µM
O=C1S/C(=C\c2ccc3c(cnn3[C@H]3CCc4cc(Cl)ccc43)c2)C(=O)N1CCN1CCCC1 [Compound 172, (5Z)-5-({1-[(1S)-5-Chloro-2,3-dihydro-1H-inden-1-yl]-1H-indazol-5-yl}methylidene)-3-(2-pyrrolidin-1-ylethyl)-1,3-thiazolidine-2,4-dione]	0.3 µM
O=C(O)CN1C(=O)S/C(=C\c2ccc3c(cnn3[C@H]3CCc4cc(Cl)ccc43)c2)C1=O [Compound 173, [(5Z)-5-({1-[(1S)-5-Chloro-2,3-dihydro-1H-inden-1-yl]-1H-indazol-5-yl}methylidene)-2,4-dioxo-1,3-thiazolidin-3-yl]acetic acid]	0.07 µM
N[C@@H]1CCCC[C@H]1N1C(=O)S/C(=C\c2ccc3c(cnn3Cc3ccc(Cl)cc3C(F)(F)F)c2)C1=O [Compound 174, (5Z)-3-[(1R,2R)-2-Aminocyclohexyl]-5-({1-[4-chloro-2-(trifluoromethyl)benzyl]-1H-indazol-5-yl}methylidine)-1,3-thiazolidine-2,4-dione]	0.15 µM

— patent publication US8796256B2 (Janssen Pharmaceutica NV, priority 2010, dated 2014)
